Measurements reported in PubChem BioAssay AID330 (DTP/NCI, 2004).
Several values for one entry are separate records, joined by “and”; a condition that tells them apart may be missing. Equal values may be shown once. Inconclusive results and toxic doses are left out. How the source made its calls: active means survival T/C of 150% or more; inactive means T/C below 125% in these data.

Tested on: P388 leukemia ip, CD2F1 mice, survival T/C
Test: NCI In Vivo Anticancer Drug Screen. Data for tumor model P388 Leukemia (intraperitoneal) in CD2F1 (CDF1) mice
Details: endpoint: median survival time, higher = longer survival
Method in brief: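 Mice carrying the transplanted tumor received test compound or vehicle. Survival was recorded in each group, and the value is the treated-group measurement divided by that of the vehicle-treated control group.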

[1] = dose: 50.0 mg/kg/injection, schedule: Q01DX005 (ip), vehicle: Klucel (hydroxypropylcellulose) (HPC)
[2] = dose: 100.0 mg/kg/injection, schedule: Q01DX005 (ip), vehicle: Klucel (hydroxypropylcellulose) (HPC)
[3] = dose: 200.0 mg/kg/injection, schedule: Q01DX005 (ip), vehicle: Klucel (hydroxypropylcellulose) (HPC)
[4] = dose: 25.0 mg/kg/injection, schedule: Q01DX009 (ip), vehicle: saline with Tween-80
[5] = dose: 100.0 mg/kg/injection, schedule: Q01DX001 (ip), vehicle: saline with Tween-80
[6] = dose: 200.0 mg/kg/injection, schedule: Q01DX001 (ip), vehicle: saline with Tween-80
[7] = dose: 60.0 mg/kg/injection, schedule: Q01DX005 (ip), vehicle: saline with Tween-80
[8] = dose: 120.0 mg/kg/injection, schedule: Q01DX005 (ip), vehicle: saline with Tween-80
[9] = dose: 240.0 mg/kg/injection, schedule: Q01DX005 (ip), vehicle: saline with Tween-80
[10] = dose: 50.0 mg/kg/injection, schedule: Q01DX009 (ip), vehicle: saline with Tween-80
[11] = dose: 100.0 mg/kg/injection, schedule: Q01DX009 (ip), vehicle: saline with Tween-80
[12] = dose: 25.0 mg/kg/injection, schedule: Q01DX005 (ip), vehicle: saline with Tween-80
[13] = dose: 50.0 mg/kg/injection, schedule: Q01DX005 (ip), vehicle: saline with Tween-80
[14] = dose: 100.0 mg/kg/injection, schedule: Q01DX005 (ip), vehicle: saline with Tween-80
[15] = dose: 50.0 mg/kg/injection, schedule: Q01DX009 (ip), vehicle: saline
[16] = dose: 100.0 mg/kg/injection, schedule: Q01DX009 (ip), vehicle: saline
[17] = dose: 200.0 mg/kg/injection, schedule: Q01DX009 (ip), vehicle: saline

Measured: T/C

[CH3][Sn]1([Cl])[O]CCNCC[O]1
inactive: dose: 25.0 mg/kg/injection, schedule: Q01DX005 (ip), vehicle: Klucel (hydroxypropylcellulose) (HPC) 102 % of control and 97 % of control | [1] 98 % of control and 100 % of control and 92 % of control | [2] 101 % of control and 109 % of control and 94 % of control | [3] 102 % of control and 103 % of control

O=c1nc2sccn2c2ncccc12
inactive: dose: 3.75 mg/kg/injection, schedule: Q01DX005 (ip), vehicle: saline with Tween-80 96 % of control | dose: 7.5 mg/kg/injection, schedule: Q01DX005 (ip), vehicle: saline with Tween-80 94 % of control | dose: 15.0 mg/kg/injection, schedule: Q01DX005 (ip), vehicle: saline with Tween-80 88 % of control

COC(=O)Nc1ccc(Cc2ccc(NC(=O)OC)cc2)cc1
inactive: [4] 101 % of control and 104 % of control

[NH-]C(CO)C(O)c1ccccc1.[NH-]C(CO)C(O)c1ccccc1.[NH-]C(CO)C(O)c1ccccc1.[Pr+3] (centres undefined)
inactive: [1] 103 % of control | [2] 97 % of control | [3] 99 % of control

COc1ccc2c(CP(=O)(O)O)cc(=O)oc2c1
inactive: dose: 100.0 mg/kg/injection, schedule: Q01DX001 (ip), vehicle: suspension in saline 99 % of control | dose: 200.0 mg/kg/injection, schedule: Q01DX001 (ip), vehicle: suspension in saline 100 % of control | dose: 400.0 mg/kg/injection, schedule: Q01DX001 (ip), vehicle: suspension in saline 87 % of control

Cc1cnc(N)c(C(=O)O)n1
inactive: [1] 102 % of control | [2] 90 % of control

CC1C(=O)C=C(c2ccccc2)C1(O)c1ccccc1 (centres undefined)
inactive: [5] 104 % of control | [6] 103 % of control

COC(=O)C1(C)CCCC2(C)c3cc(OC)ccc3C3(CC12)OCCS3 (centres undefined)
inactive: dose: 2.5 mg/kg/injection, schedule: Q01DX009 (ip), vehicle: saline with Tween-80 100 % of control | dose: 5.0 mg/kg/injection, schedule: Q01DX009 (ip), vehicle: saline with Tween-80 98 % of control | dose: 10.0 mg/kg/injection, schedule: Q01DX009 (ip), vehicle: saline with Tween-80 92 % of control

COc1cc(NCC(C)(O)CN(CC(C)C)CC(C)C)c2ncccc2c1 (centres undefined)
inactive: dose: 12.5 mg/kg/injection, schedule: Q01DX005 (ip), vehicle: saline 106 % of control | dose: 25.0 mg/kg/injection, schedule: Q01DX005 (ip), vehicle: saline 106 % of control | dose: 50.0 mg/kg/injection, schedule: Q01DX005 (ip), vehicle: saline 112 % of control and 97 % of control

COC(=O)C1CCC(=O)N1Cc1csc(-c2ccccc2)n1 (centres undefined)
inactive: [7] 106 % of control | [8] 100 % of control | [9] 106 % of control

N#CN=CN1CCC(Cc2ccccc2)CC1
inactive: [10] 101 % of control | [11] 101 % of control

CC(C)N(c1nccc(F)n1)C(C)C
inactive: [12] 103 % of control | [13] 101 % of control | [14] 103 % of control | dose: 200.0 mg/kg/injection, schedule: Q01DX005 (ip), vehicle: saline with Tween-80 104 % of control

C=C(C)C1CCC2(C)C1CCC1(C)C2CCC2C3(C)C4OC(OC4=O)C(C)(C)C3CCC21C (centres undefined)
inactive: dose: 25.0 mg/kg/injection, schedule: Q01DX005 (ip), vehicle: DMSO 98 % of control | dose: 50.0 mg/kg/injection, schedule: Q01DX005 (ip), vehicle: DMSO 100 % of control | dose: 100.0 mg/kg/injection, schedule: Q01DX005 (ip), vehicle: DMSO 100 % of control | dose: 200.0 mg/kg/injection, schedule: Q01DX005 (ip), vehicle: DMSO 113 % of control | dose: 400.0 mg/kg/injection, schedule: Q01DX005 (ip), vehicle: DMSO 108 % of control

CCOP(=O)(Cc1ccc(-c2nc3ccccc3o2)cc1)OCC
inactive: [15] 103 % of control | [16] 100 % of control | [17] 99 % of control

Cc1ccc(S(=O)(=O)N/N=C2/CCCC(S(=O)(=O)c3ccc(C)cc3)C2)cc1 (centres undefined)
inactive: [12] 111 % of control | [13] 98 % of control | [14] 93 % of control

Cn1c2c(c(=O)n(C)c1=O)N1c3c(n(C)c(=O)n(C)c3=O)NN1C(c1ccccc1)=N2
inactive: [5] 95 % of control | [6] 88 % of control | dose: 400.0 mg/kg/injection, schedule: Q01DX001 (ip), vehicle: saline with Tween-80 89 % of control

CNC(=S)N/N=C/c1ccccc1
inactive: [4] 110 % of control | [10] 112 % of control | [15] 100 % of control | [11] 117 % of control | [16] 105 % of control | dose: 200.0 mg/kg/injection, schedule: Q01DX009 (ip), vehicle: saline with Tween-80 100 % of control | [17] 100 % of control

CC(=O)OCC1OC(Nc2[nH]c(=O)[nH]c(=O)c2C(=O)CCl)C(OC(C)=O)C(OC(C)=O)C1OC(C)=O (centres undefined)
inactive: dose: 100.0 mg/kg/injection, schedule: Q04DX002 (ip), vehicle: saline with Tween-80 121 % of control | dose: 200.0 mg/kg/injection, schedule: Q04DX002 (ip), vehicle: saline with Tween-80 111 % of control | dose: 400.0 mg/kg/injection, schedule: Q04DX002 (ip), vehicle: saline with Tween-80 99 % of control

COc1ccc(C2c3cc4c(cc3OC(N3CCCC3)C2C)OCO4)c(OC)c1 (centres undefined)
inactive: [7] 99 % of control | [8] 99 % of control | [9] 97 % of control

COC(=O)c1nnn(-c2ccc(Cl)cc2C)c1N
inactive: [7] 96 % of control | [8] 97 % of control | [9] 91 % of control

Cc1cc(C)c(C#N)c(NN)n1
inactive: dose: 6.25 mg/kg/injection, schedule: Q01DX005 (ip), vehicle: saline with Tween-80 99 % of control | dose: 12.5 mg/kg/injection, schedule: Q01DX005 (ip), vehicle: saline with Tween-80 103 % of control

O=c1c2c([nH]n1-c1ccccc1)-c1ccccc1CS2
inactive: [4] 105 % of control | [10] 104 % of control | [11] 117 % of control

CNCCC1CCCCC1
inactive: [1] 110 % of control
